Data reported in patent publication US10864201B2, “Heteroaromatic compounds as Vanin inhibitors” (Boehringer Ingelheim International GmbH, priority 2018, dated 2020).

Columns and labels:
[1] = target: FLAG-tagged Vanin-1 (AA 22-493, T26I) (Homo sapiens (Human), UniProt O95497, T26I); experiment: Vanin-1 enzymatic assay; assay type: biochemical; conditions: formation of pantothenic acid from D-pantethine (3 μM), RapidFire MS; geometric mean in case of multiple measurements; read-out: VNN 1 IC50
Procedure: The test compounds are dissolved in 100% DMSO at a concentration of 10 mM and in a first step diluted in DMSO to a concentration of 5 mM, followed by serial dilution steps in 100% DMSO. Dilution factor and number of dilution steps may vary according to needs. Typically 8 different concentrations by 1:5 dilutions are prepared, a further intermediate dilutions of the substances is carried out with assay buffer resulting in 1% final DMSO concentration in the assay.
0.1 nM of FLAG-tagged Vanin-1 (AA 22-493, T26I, produced internally) and test compounds are incubated at room temperature for 20 minutes in assay buffer (1 mM DTT, 0.0025% Brij-35, 50 mM HEPES, pH7.5). D-Pantethine (Sigma, Cat #P2125-5G) in assay buffer is added (final concentration 3 μM) and incubated for additional 30 minutes at room temperature. Total assay volume typically is 40 μl but might be adjusted according to needs. Reaction is stopped by adding equal volume of stop solution as the reaction mixture to reach 100 nM HD-pantothenic acid (as an internal standard) and 1% TFA. Assay plates are centrifuged for 2 minutes and the formation of pantothenic acid is detected by RapidFire Mass Spectrometry (mobile phase A: 0.1% formic acid and 0.01% trifluoroacetic acid in water; mobile phase B: 47.5% acetonitrile, 47.5% methanol, 0.1% formic acid and 0.01% trifluoroacetic acid in water) using a C18, 12 μL cartridge (Agilent Cat #G9205A).
The values given in Table I result from measurements of one or more samples. In case of multiple measurements the geometric mean values are given.

Pantetheinase (vanin) = experiment: Human Whole Blood assay; assay type: cell-based; conditions: formation of pantothenic acid after pantethine supplementation, RapidFire MS, read-out: HWB IC50
Procedure: Human Whole Blood assay: Pantetheinase (vanin) converts panteheine into pantothenic acid and cysteamine. Accordingly, in the described protocol vanin activity is quantified by formation of pantothenic acid after pantetheine supplementation via pantethine. The assay is applicable to identify vanin inhibitors. Compound stocks were dissolved in DMSO at 10 mM. Further dilutions were performed in RPMI 1640 medium (Gibco, #A-10491-01) and final concentrations in the assay were 0.032 nM-500 nM.
Human blood was drawn into a blood bag (1% heparin, 50 I.E./mL). Blood was aliquoted into cavities of 96-deep-well plates at 290 μL and mixed with 10 μL compound solution or vehicle (30 sec at 1400 rpm on a shaker). Equilibration followed at room temperature, 250 rpm and for 30 min. The assay was started by adding 10 μL of substrate solution (20 μM pantethine in 1 mM DTT, 0.0025% Brij-35, 50 mM HEPES, pH7.5) to each well, except for some blank wells which received […] substrate buffer (1 mM DTT, 0.0025% Brij-35, 50 mM HEPES, pH7.5) only. Samples were thoroughly shaken (30 sec, 1400 rpm) and reaction was allowed to take place at room temperature, 250 rpm and for 5 min. The reaction was stopped by addition of a vanin tool inhibitor in excess (BI-1 total conc. 10 μM). Centrifugation of the plate followed at 4° C., 665 G for 10 min. Then the blood plasma samples (100 μL) were transferred into another 96-deep-well plate and proteins were precipitated (5 min on ice) by adding 100 μL of ice cold precipitation solution (1 μM labelled pantothenic acid (di-β-alanine-13C6,15N2 calcium salt, Sigma, #705837) in acetonitrile). Afterwards the plate was centrifuged (4° C., 3220 G, 10 min) and supernatants (50 μL) were collected into another 96-deep-well plate and mixed (10 sec, 1400 rpm) with 150 μL ice cold formic acid (0.1%, Carl Roth GmbH+Co.KG, #CP03.1). The formation of pantothenic acid is detected by RapidFire Mass Spectrometry. A TripleQuad 6500+ (ABSciex, Germany) was equipped with an LC-1290 system, a RapidFire autosampler (Agilent, Germany) and a C18 cartridge Type C 12 μL (Agilent Cat #G9526-80000). Mobile phase A was consisting of 0.09% formic acid and 0.01% trifluoroacetic acid in water and mobile phase B of 0.09% formic acid and 0.01% trifluoroacetic acid in acetonitrile/methanol/water=47.5/47.5/5.

Chain of FLAG-tagged Vanin-1 (AA 22-493, T26I) (O95497 22-493 T26I): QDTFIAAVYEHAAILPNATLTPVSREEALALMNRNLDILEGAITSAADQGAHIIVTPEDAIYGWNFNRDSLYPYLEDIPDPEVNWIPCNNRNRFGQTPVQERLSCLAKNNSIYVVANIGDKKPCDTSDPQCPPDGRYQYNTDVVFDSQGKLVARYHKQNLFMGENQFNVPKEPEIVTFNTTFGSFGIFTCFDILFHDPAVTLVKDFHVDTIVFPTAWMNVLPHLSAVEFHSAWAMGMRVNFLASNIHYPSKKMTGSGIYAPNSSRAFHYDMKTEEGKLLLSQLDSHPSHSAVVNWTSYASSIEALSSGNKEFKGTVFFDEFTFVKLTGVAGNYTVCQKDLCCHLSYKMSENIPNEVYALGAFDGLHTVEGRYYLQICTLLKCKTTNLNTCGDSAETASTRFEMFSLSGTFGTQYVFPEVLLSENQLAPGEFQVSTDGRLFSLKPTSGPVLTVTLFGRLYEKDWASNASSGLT

| IC50 [1] [nM] | IC50 (Pantetheinase (vanin)) [nM] | Compound |
| --- | --- | --- |
| 2.1 |  | CN(C(=O)C1CC1)[C@H]1CCN(C(=O)c2cnc3c(c2)CC(C)(C)N3)C1 [Example 2.5] |
| 11.5 |  | CN(C(=O)C1CC1)[C@H]1CCN(C(=O)c2cnc3c(c2)CC[C@@](C)(c2cncnc2)N3)C1 [Example 13.4] |
| 0.5 | 5.7 | CCC1(C)CCc2cc(C(=O)N3CC[C@H](N(C)C(C)=O)C3)cnc2N1 (stereo partly drawn) [Example 11.12] |
| 0.7 | 5.2 | CC1(C)CCc2cc(C(=O)N3CC[C@H](N4CCCC4=O)C3)cnc2N1 [Example 11.8] |
| 1.7 |  | CC(=O)N(C)[C@H]1CCN(C(=O)c2cnc3c(c2)C[C@@](C)(c2cccc(F)c2)N3)C1 [Example 4.2] |
| 0.9 | 11.4 | CN(C(=O)C1(C)CCC1)[C@H]1CCN(C(=O)c2cnc3c(c2)CCC(C)(C)N3)C1 [Example 11.4] |
| 0.2 |  | CN(C(=O)C1CCC1)[C@H]1CCN(C(=O)c2cnc3c(c2)CC[C@](C)(c2cncnc2)N3)C1 [Example 13.1, N-methyl-N-[(3S)-1-[(7R)-7-Methyl-7-(pyrimidin-5-yl)-5,6,7,8-tetrahydro-1,8-naphthyridine-3-carbonyl]pyrrolidin-3-yl]cyclobutanecarboxamide] |
| 4.6 |  | CN(C(=O)C1(C)CCC1)[C@H]1CCN(C(=O)c2cnc3c(c2)CC(C)(C)N3)C1 [Example 2.3] |
| 0.1 | 2 | CC(=O)N(C)[C@H]1CCN(C(=O)c2cnc3c(c2)C[C@](C)(c2cccc(Cl)c2)N3)C1 [Example 7.2] |
| 20.3 |  | CC(=O)N(C)[C@H]1CCN(C(=O)c2cnc3c(c2)CCC(c2ccccc2)N3)C1 (stereo partly drawn) [Example 12.1, N-Methyl-N-[(3S)-1-(7-phenyl-5,6,7,8-tetrahydro-1,8-naphthyridine-3-carbonyl)pyrrolidin-3-yl]acetamide] |
| 0.2 | 2.9 | CN(c1ncccn1)[C@H]1CCN(C(=O)c2cnc3c(c2)CCC(C)(C)N3)C1 [Example 11.3] |
| 0.7 | 3.5 | CN(C(=O)C1CC1)[C@H]1CCN(C(=O)c2cnc3c(c2)CCC(C)(C)N3)C1 [Example 11.9] |
| 23.5 |  | CN(C(=O)C1CCC1)[C@H]1CCN(C(=O)c2cnc3c(c2)CC[C@@](C)(c2cncnc2)N3)C1 [Example 13.2, N-methyl-N-[(3S)-1-[(7S)-7-Methyl-7-(pyrimidin-5-yl)-5,6,7,8-tetrahydro-1,8-naphthyridine-3-carbonyl]pyrrolidin-3-yl]cyclobutanecarboxamide] |
| 2.5 |  | CC(=O)N(C)[C@H]1CCN(C(=O)c2cnc3c(c2)CC(C)(C)N3)C1 [Example 1.1, N-[(3S)-1-{2,2-Dimethyl-1H,2H,3H-pyrrolo[2,3-b]pyridine-5-carbonyl}pyrrolidin-3-yl]-N-methylacetamide] |
| 2.7 |  | CN(C(=O)C1CC1)[C@H]1CCN(C(=O)c2cnc3c(c2)CCCC(C)(C)N3)C1 [Example 12.6] |
| 2.5 |  | CC(=O)N(C)[C@H]1CCN(C(=O)c2cnc3c(c2)CCCC(C)(C)N3)C1 [Example 12.4] |
| 1.6 |  | CC1(C)Cc2cc(C(=O)N3CC[C@H](N4CCOC4=O)C3)cnc2N1 [Example 1.3] |
| 0.3 |  | CN(C(=O)C1CC1)[C@H]1CCN(C(=O)c2cnc3c(c2)CC[C@](C)(c2cncnc2)N3)C1 [Example 13.3] |
| 4.3 |  | CC1(C)CCc2cc(C(=O)N3CC[C@H](N4CCOC4=O)C3)cnc2N1 [Example 11.5] |
| 4.9 |  | CN(C(=O)C1(C#N)CC1)[C@H]1CCN(C(=O)c2cnc3c(c2)CCC(C)(C)N3)C1 [Example 11.7] |
| 0.4 |  | CC(=O)N(C)[C@H]1CCN(C(=O)c2cnc3c(c2)CCCCN3)C1 [Example 12.3] |
| 25.9 |  | CC(=O)N(C)[C@H]1CCN(C(=O)c2cnc3c(c2)C[C@@](C)(c2ccccc2)N3)C1 [Example 9.4] |

Second part, the molecule before the results:

| Compound | IC50 [1] [nM] | IC50 (Pantetheinase (vanin)) [nM] |
| --- | --- | --- |
| C[C@]1(c2ccc(F)cc2)Cc2cc(C(=O)N3CC[C@H](N4CCOC4=O)C3)cnc2N1 [Example 5.2] | 0.1 | 1.5 |
| C[C@]1(c2cccc(F)c2)Cc2cc(C(=O)N3CC[C@H](N4CCOC4=O)C3)cnc2N1 [Example 4.1, 3-[(3S)-1-[(2R)-2-(3-Fluorophenyl)-2-methyl-1H,2H,3H-pyrrolo[2,3-b]pyridine-5-carbonyl]pyrrolidin-3-yl]-1,3-oxazolidin-2-one] | 0.1 | 1.4 |
| C[C@]1(c2cccc(Cl)c2)Cc2cc(C(=O)N3CC[C@H](N4CCOC4=O)C3)cnc2N1 [Example 7.4] | 0.1 | 1.9 |
| CC(=O)N(C)[C@H]1CCN(C(=O)c2cnc3c(c2)C[C@](C)(c2ccc(C#N)cc2)N3)C1 [Example 10, N-[(3S)-1-[(2R)-2-(4-Cyanophenyl)-2-methyl-1H,2H,3H-pyrrolo[2,3-b]pyridine-5-carbonyl]pyrrolidin-3-yl]-N-methylacetamide] | 0.2 |  |
| CC1(C)Cc2cc(C(=O)N3CCC4(CCOCC4)C3)cnc2N1 [Example 1.4] | 4.9 |  |
| CC(=O)N(C)[C@H]1CCN(C(=O)c2cnc3c(c2)C[C@](C)(c2ccc(Cl)cc2)N3)C1 [Example 9.1, N-[(3S)-1-[(2R)-2-(4-Chlorophenyl)-2-methyl-1H,2H,3H-pyrrolo[2,3-b]pyridine-5-carbonyl]pyrrolidin-3-yl]-N-methylacetamide] | 0.1 | 3 |
| CC(=O)N(C)[C@H]1CCN(C(=O)c2cnc3c(c2)C[C@@](C)(c2ccc(Cl)cc2)N3)C1 [Example 9.2, N-[(3S)-1-[(2S)-2-(4-Chlorophenyl)-2-methyl-1H,2H,3H-pyrrolo[2,3-b]pyridine-5-carbonyl]pyrrolidin-3-yl]-N-methylacetamide] | 1.4 |  |
| C[C@]1(c2ccc(F)cc2)Cc2cc(C(=O)N3CC4(CCOCC4)C3)cnc2N1 [Example 5.6] | 0.6 | 10.3 |
| CC1(C)CCCc2cc(C(=O)N3CC[C@H](N4CCCC4=O)C3)cnc2N1 [Example 12.5] | 1.5 |  |
| C[C@]1(c2cccc(F)c2)Cc2cc(C(=O)N3CC[C@H](N4CCCC4=O)C3)cnc2N1 [Example 4.4] | 0.1 | 2.1 |
| CC(=O)N(C)[C@H]1CCN(C(=O)c2cnc3c(c2)C[C@](C)(c2ccc(F)cc2)N3)C1 [Example 6, N-[(3S)-1-[(2R)-2-(4-Fluorophenyl)-2-methyl-1H,2H,3H-pyrrolo[2,3-b]lpyridine-5-carbonyl]-pyrrolidin-3-yl]-N-methylacetamide] | 0.2 | 1.9 |
| C[C@]1(c2cccc(Cl)c2)Cc2cc(C(=O)N3CC[C@H](N4CCCC4=O)C3)cnc2N1 [Example 7.1, (3′S)-1′-[2-(3-Chlorophenyl)-2-methyl-1H,2H,3H-pyrrolo[2,3-b]pyridine-5-carbonyl]-[1,3′-bipyrrolidine]-2-one] | 0.1 |  |
| CC1(C)Cc2cc(C(=O)N3CC4(CCOCC4)C3)cnc2N1 [Example 1.5] | 10.4 |  |
| CC(=O)N(C)[C@H]1CCN(C(=O)c2cnc3c(c2)C[C@@](C)(c2ccc(F)cc2)N3)C1 [Example 5.4] | 87.1 |  |
| CC1(C)CCCc2cc(C(=O)N3CC[C@H](N4CCOC4=O)C3)cnc2N1 [Example 12.7] | 1.4 |  |
| CC1(C)CCc2cc(C(=O)N3CCC4(CCOCC4)C3)cnc2N1 [Example 11.1, 2-(7,7-Dimethyl-5,6,7,8-tetrahydro-1,8-naphthyridine-3-carbonyl)-8-oxa-2-azaspiro[4.5]decane] | 1.7 |  |
